Assay results published in patent US3996231A, “1-Quinolinyl-pyrazolidine derivatives” (Choay S.A., priority 1973, dated 1976).
Like-named read-outs stand apart in the source and are kept apart here.

Key:
Solubility = type: physicochemical
[1] = system: Arthritis by Freund adjuvant; assay: Arthritis by Freund adjuvant; type: in vivo, rat; conditions: 50 mg/kg per day
Description: The injection of 0.5 ml of Freund adjuvant (product sold by the Difco Company) into the plantar pad of the rear foot of a rat of 90 days, causes a chronic polyarthritis.
This injection causes an inflammation first localised in the injected foot, then generalised. The blocking of the articulations appears between the 10th and the 20th days.
In a series of rats thus treated there are selected, 10 days after the injection of the Freund adjuvant, 50 rats having complete blockage of the articulations.

[2] = Acute oral toxicity / LD50 in the mouse; conditions: in vivo, po
Description: (§1) LD50 were determined in the mouse and the rat. The substance was administered to the animals by the oral route in a single dose. The behaviour of the animals was observed during the six days which followed. The statistical calculations were done by the method of Miller L. C. Tainter M. L. (Proc. Soc. Exp. Biol. Med., 1944 57 261/264/264).

mouse = assay: Acute oral toxicity / LD50 in the mouse; conditions: for Mortality: in vivo, po
Description: as §1

Experimental pleurisy = Experimental pleurisy in the rat (terebenthine essence); type: in vivo, Wistar rats; conditions: 6 hours
Description: The injection of terebenthine essence (0.1 ml) into the bottom of the diaphragmatic sack of the rat causes in the hours which follow a vascular parietal reaction which leads to the formation of an inflammatory type pleurisy.
The average volume of the pleural exudate (taken up after opening the thoracic cage of the previously sacrificed animals) increases gradually in control animals to reach 6 to 7 ml towards the sixth hour, this volume remaining constant to the forty-eighth hour. The exudate is accompanied by the diapedesis of the formed elements of the blood and by the increase in the mobile cells of the conjunctive tissue. Five days after the injection of the irritant agent, the cellular phase gives place to a tissular reaction which leads to the building of dense granulation tissue and to the production of adhesions between the lungs and the thoracic wall.
The action of an anti-inflammatory substance is manifested by a reduction in the volume of the pleural exudate measured for example 6 hours after the injection of the irritant agent and by a reduction in the intensity of the later tissular reaction.
Experiments in Wistar rats of 200 g divided into batches in the following manner were carried out:
1 control batch of 15 animals
batch of 60 animals (batch 3) also divided into subgroups, each of them comprising 20 animals which have been treated with the doses indicated in Table V
6 batches of 15 animals, respectively treated with anti-inflammatory substances for comparison identified above.
The substances to be tested were administered by mouth 30 minutes before the injection of the irritant substance. The doses of these known anti-inflammatories correspond to their normal experimental doses. The results indicated in the Table V correspond to the reductions expressed as % of the average volumes of pleural exudate taken up 6 hours after the irritant injection and observed in the treated animals relative to the average volumes measured in the controls.

[3] = system: transmission of painful stimuli; assay: Caroll and Lim test; type: in vivo, rat; conditions: 50 mg/kg by mouth
Source text: This test (Arch. Int. Pharmacodyn., 1960, CXXV, 383-403) enables the study of the effect of analgesics on the transmission of painful stimuli, by means of electrodes placed on the tail of the rat and connected to a "stimulator" constituted by a source adapted to supply an alternating current of 60 Hz frequency at increasing voltages. The three voltages (thresholds S1, S2, S3) at which there are successively obtained:
Threshold S1 : characteristic retraction movement of the tail
Threshold S3 : a cry which continues after interrupting the stimulation.
The analgesic substances administered to a group of 15 rats have the effect of increasing the values of these thresholds. This is what have been observed with the substance according to the invention, administered by mouth at the dose of 50 mg/kg. The average increases, expressed as % with respect to the average corresponding thresholds observed in 15 animals of a control series, are indicated in Table VIII below.

rat = assay: in vivo
Description: as §1

in vivo = conditions: rat, in vivo, po
Description: as §1

all the animals = assay: AD50 (active dose 50) and therapeutic index as shown by the above-mentioned tests; type: in vivo; conditions: for ED50: read-out: AD50 (active dose 50)
[4] = comparison batch, 25 mg/kg by mouth
[5] = comparison batch, 50 mg/kg by mouth
[6] = relative to the values of the invention's substance

CCCCC1C(=O)NN(c2ccnc3cc(Cl)ccc23)C1=O (stereo not drawn) [1-(7'-chloro 4'-quinolinyl) 3,5-dioxo 4-n-butyl pyrazolidine]
solubility in alcohol (Solubility; alcohol): soluble
solubility in solutions of potassium or of sodium carbonate (Solubility; solutions of potassium or of sodium carbonate): soluble
solubility in water (Solubility; water): insoluble
Animals with at least partial deblocking of the articulations ([1]; after 5 days of treatment): at least 25%
Animals with at least partial deblocking of the articulations ([1]; after 10 days of treatment): ≥ 50%
Animals with at least partial deblocking of the articulations ([1]; after 15 days of treatment): ≥ 65%
LD50 at 144 h [2]: ~2000 mg/kg
mortality at 144 h ([2]; 1000 mg/kg): 16%
mortality at 144 h ([2]; 2000 mg/kg): 50%
mortality at 144 h ([2]; 4000 mg/kg): 100%
Mortality (mouse; 200 mg/kg): no death
Mortality (mouse; 500 mg/kg): no death
Reduction of average volume of pleural exudate (Experimental pleurisy; Batch No. 1, 12.5 mg/kg by mouth): -24%
Reduction of average volume of pleural exudate (Experimental pleurisy; Batch No. 1, 25 mg/kg by mouth): -35%
Reduction of average volume of pleural exudate (Experimental pleurisy; Batch No. 1, 50 mg/kg by mouth): -45%
Reduction of average volume of pleural exudate (Experimental pleurisy; Batch No. 2, 12.5 mg/kg by mouth): -23%
Reduction of average volume of pleural exudate (Experimental pleurisy; Batch No. 2, 25 mg/kg by mouth): -38%
Reduction of average volume of pleural exudate (Experimental pleurisy; Batch No. 2, 50 mg/kg by mouth): -55%
Reduction of average volume of pleural exudate (Experimental pleurisy; Batch No. 3, 12.5 mg/kg by mouth): -18%
Reduction of average volume of pleural exudate (Experimental pleurisy; Batch No. 3, 25 mg/kg by mouth): -28%
Reduction of average volume of pleural exudate (Experimental pleurisy; Batch No. 3, 50 mg/kg by mouth): -45%
Average increase of threshold S1 ([3]; 11/2 hour): 0
Average increase of threshold S1 ([3]; 30 minutes): 0
Average increase of threshold S1 ([3]; 1 hour): 0
Average increase of threshold S1 ([3]; 2 hours): 0
Mortality (rat; in vivo, po, 200 mg/kg): no death
Mortality (rat; in vivo, po, 500 mg/kg): no death
Mortality (rat; oral single dose, 1 g/kg): no death
Mortality (rat; oral single dose, 2 g/kg): no death
LD50 at 144 h (in vivo): > 4000 mg/kg
mortality at 144 h (in vivo; 4000 mg/kg): 5%
ED50 (all the animals; in all the animals, determined under similar conditions): ~50 mg/kg
therapeutic index (all the animals; in vivo): notably higher than that of phenylbutazone

Cc1cccc(Nc2ccccc2C(=O)O)c1C [Ac. Mefenamic, Mefanamic acid, reference compound]
Reduction of average volume of pleural exudate (Experimental pleurisy; [4]): -30%

O=C(O)c1ccccc1Nc1cccc(C(F)(F)F)c1 [Ac. flufenamic, Flufenamic acid, reference compound]
Reduction of average volume of pleural exudate (Experimental pleurisy; [4]): -32%

O=C(O)c1cccnc1Nc1cccc(C(F)(F)F)c1 [Ac. niflumic, Niflumic acid, reference compound]
Reduction of average volume of pleural exudate (Experimental pleurisy; [5]): -30%

COc1ccc2c(c1)c(CC(=O)O)c(C)n2C(=O)c1ccc(Cl)cc1 [Indomethacine, reference compound]
Reduction of average volume of pleural exudate (Experimental pleurisy; comparison batch, 5 mg/kg by mouth): -33%

CCCCC1C(=O)N(c2ccccc2)N(c2ccccc2)C1=O [Phenylbutazone, reference compound]
LD50 (in words) (mouse; [6]): much lower than the above-indicated values
Reduction of average volume of pleural exudate (Experimental pleurisy; comparison batch, 100 mg/kg by mouth): -49%
LD50 (in words) (rat; [6]): much lower than the above-indicated values
ED50 (all the animals): ~100 mg/kg

Clofezone [reference compound]
Reduction of average volume of pleural exudate (Experimental pleurisy; [5]): -37%
